IC50 data for eleven compounds are collected here from patent publication US20230117034A1, “PYRAZOLOTRIAZINES” (Bayer Aktiengesellschaft, priority 2019, published 2023).

The test system of experiment [1] is BRCA1 mRNA expression in MDA-MB-231 cells. Put plainly: qRT-PCR assay: BRCA1 mRNA expression in MDA-MB-231. As to conditions: Homo sapiens, MDA-MB-231, Inhibition of BRCA1 mRNA expression in MDA-MB-231 cells; median; read-out: RTqPCR-MDA-MB-231, IC50, BRCA1 (median). It counts as cell-based, human. The method in brief: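 First, cells are plated at 200,000 per well and allowed 24 h. Second, test substances are applied continuously for a further 24 h. Finally, RNA is isolated, 600 ng is converted to cDNA, and qPCR quantifies the transcript relative to GAPDH.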

Experiment [2] has as its target CDK12/CycK (Homo sapiens, UniProt Q9NYV4). The experiment in a line: CDK12/CycK high ATP kinase assay (TR-FRET, 2 mM ATP). The format is biochemical. Particulars: 2 mM ATP (high ATP); median; read-out: CDK12/CyclinK, 2 mM ATP (high ATP), IC50-[mol/l] (median). Put shortly:
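Read-out is TR-FRET (Eu-anti-rabbit IgG, anti-phospho-c-Myc Ser62 antibody, streptavidin-XL665) after EDTA stop. Reaction ran 60 min at 22 °C using 1 µM biotin-peptide and high ATP (2 mM) with roughly 0.75 nM recombinant CDK12/CycK, after 15 min compound pre-binding; normalised emission ratios yield IC50.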

Experiment [3] deals with MDA-MB-231, human breast cancer cells. The experiment in a line: Proliferation assay MDA-MB-231 (crystal violet, 4 days). The format is cell-based. Particulars: Homo sapiens, MDA-MB-231, 96 h, MDA-MB-231 cells, median, read-out: Prolif-MDA MB-231, IC50-[mol/l] (median). The method in brief:
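Growth was measured by crystal violet staining after cells had been treated with compounds (0.01-10 µmol/L, 0.1% DMSO) for 4 days, beginning 24 h after seeding. Values were normalized to a zero-point plate and to untreated controls, and IC50 values were derived by a four-parameter fit.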

Bounds are passed on as bounds.

CDK12/CycK, sequence (Q9NYV4 with tags, fused parts or gaps): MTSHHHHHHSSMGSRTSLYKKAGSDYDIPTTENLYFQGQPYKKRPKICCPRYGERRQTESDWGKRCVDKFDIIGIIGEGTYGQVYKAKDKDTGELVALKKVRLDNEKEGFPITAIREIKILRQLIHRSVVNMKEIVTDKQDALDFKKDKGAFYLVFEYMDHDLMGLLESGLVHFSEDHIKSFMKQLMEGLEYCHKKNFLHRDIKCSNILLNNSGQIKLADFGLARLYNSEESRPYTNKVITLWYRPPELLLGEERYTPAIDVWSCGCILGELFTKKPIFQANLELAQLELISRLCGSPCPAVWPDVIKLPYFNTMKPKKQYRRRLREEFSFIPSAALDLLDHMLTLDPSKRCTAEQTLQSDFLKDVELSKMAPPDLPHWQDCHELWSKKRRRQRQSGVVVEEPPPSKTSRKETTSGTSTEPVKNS
CDK12/CycK, sequence (O75909 1-300 partner limits assumed): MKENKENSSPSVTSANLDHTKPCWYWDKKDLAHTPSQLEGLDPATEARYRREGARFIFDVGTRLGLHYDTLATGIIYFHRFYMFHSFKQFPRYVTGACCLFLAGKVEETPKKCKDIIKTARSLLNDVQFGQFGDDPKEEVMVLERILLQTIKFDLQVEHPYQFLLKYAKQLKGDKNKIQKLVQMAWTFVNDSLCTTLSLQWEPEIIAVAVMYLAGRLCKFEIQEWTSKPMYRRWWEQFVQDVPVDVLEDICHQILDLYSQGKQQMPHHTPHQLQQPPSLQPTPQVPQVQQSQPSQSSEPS

With `COc1ccc2[nH]c(CNc3nc(N4CCOCC4)nc4c(C(F)(F)F)cnn34)nc2c1` [Example 257, N-[(5-methoxy-1H-benzimidazol-2-yl)methyl]-2-(morpholin-4-yl)-8-(trifluoromethyl)pyrazolo[1,5-a][1,3,5]triazin-4-amine], the values for the IC50 in experiment [1], in experiment [2] and in experiment [3] were 6.97 nM, 117 nM and 10.7 nM, respectively.
Turning to `Fc1ccc2[nH]c(CNc3nc(N4CCOCC4)nc4c(C5CC5(F)F)cnn34)nc2c1F` (stereo not drawn) [Example 278, N-[(4,5-difluoro-1H-benzimidazol-2-yl)methyl]-8-(2,2-difluorocyclopropyl)-2-(morpholin-4-yl)pyrazolo[1,5-a][1,3,5]triazin-4-amine], the IC50 was found to be 3.89 nM in experiment [1], 2440 nM in experiment [2] and 17.4 nM in experiment [3].
In the case of `Fc1cccc2[nH]c(CNc3nc(N4CCOCC4)nc4c(C(F)(F)F)cnn34)nc12` [Example 274, N-[(4-fluoro-1H-benzimidazol-2-yl)methyl]-2-(morpholin-4-yl)-8-(trifluoromethyl)pyrazolo[1,5-a][1,3,5]triazin-4-amine], the IC50 turned out to be 1.92 nM in experiment [1], 39.5 nM in experiment [2] and 6.74 nM in experiment [3].
With `Fc1ccc2[nH]c(CNc3nc(N4CCOCC4)nc4c(C5CC5(F)F)cnn34)nc2c1` (single isomer, unassigned) [Example 314, 8-[(1R or S)-2,2-difluorocyclopropyl]-N-[(5-fluoro-1H-benzimidazol-2-yl)methyl]-2-(morpholin-4-yl)pyrazolo[1,5-a][1,3,5]triazin-4-amine], the IC50 came to 35.7 nM in experiment [1], 9920 nM in experiment [2] and 31.3 nM in experiment [3].
On to `N[C@@H]1[C@@H]2C[C@H]1CN(c1nc(NCc3nc4ccccc4[nH]3)n3ncc(Br)c3n1)C2` [Example 289, 2-[(1R,5S,6s)-6-amino-3-azabicyclo[3.1.1]heptan-3-yl]-N-[(1H-benzimidazol-2-yl)methyl]-8-bromopyrazolo[1,5-a][1,3,5]triazin-4-amine], for which the IC50 is 2.91 nM in experiment [1], 7000 nM in experiment [2] and 10.3 nM in experiment [3].
As for `Fc1ccc2[nH]c(CNc3nc(N4CC5CCC(C4)N5)nc4c(C(F)(F)F)cnn34)nc2c1F` [Example 310, 2-(3,8-diazabicyclo[3.2.1]octan-3-yl)-N-[(4,5-difluoro-1H-benzimidazol-2-yl)methyl]-8-(trifluoromethyl)pyrazolo[1,5-a][1,3,5]triazin-4-amine], the IC50 in experiment [1] is 35.1 nM; in experiment [2] it was 1290 nM; in experiment [3] it was 3.48 nM.
On to `N[C@@H]1CCN(c2nc(NCc3nc4ccccc4[nH]3)n3ncc(Br)c3n2)C1` [Example 250, 2-[(3R)-3-aminopyrrolidin-1-yl]-N-[(1H-benzimidazol-2-yl)methyl]-8-bromopyrazolo[1,5-a][1,3,5]triazin-4-amine], for which the IC50 in experiment [1] came to 10.5 nM; in experiment [2], 11300 nM; in experiment [3], 34.4 nM.
Take `c1ccc2[nH]c(CNc3nc(N4C[C@@H]5C[C@H]4CO5)nc4c(C5CC5)cnn34)nc2c1` [Example 254, N-[(1H-benzimidazol-2-yl)methyl]-8-cyclopropyl-2-[(1S,4S)-2-oxa-5-azabicyclo[2.2.1]heptan-5-yl]pyrazolo[1,5-a][1,3,5]triazin-4-amine]: the IC50 in experiment [1] was 60.5 nM; in experiment [2], over 20000 nM; in experiment [3] it was 181 nM.
Regarding `CCNC1CCN(c2nc(NCc3nc4ccccc4[nH]3)n3ncc(Br)c3n2)CC1` [Example 300], the IC50 in experiment [1] is 12.6 nM; in experiment [2] it was over 20000 nM; in experiment [3], 106 nM.
For `CN[C@@H]1CCN(c2nc(NCc3nc4ccccc4[nH]3)n3ncc(Br)c3n2)C1` [Example 253, N-[(1H-benzimidazol-2-yl)methyl]-8-bromo-2-[(3R)-3-(methylamino)pyrrolidin-1-yl]pyrazolo[1,5-a][1,3,5]triazin-4-amine], in that order: 20.8 nM, over 20000 nM and 32.8 nM.
For `FC1(F)CC1c1cnn2c(NCc3nc4ccccc4[nH]3)nc(N3CCOCC3)nc12` (stereo not drawn) [Example 279, N-[(1H-benzimidazol-2-yl)methyl]-8-(2,2-difluorocyclopropyl)-2-(morpholin-4-yl)pyrazolo[1,5-a][1,3,5]triazin-4-amine], in that order: 12 nM, 14000 nM and 34.8 nM.
